Columns and labels:
[1] = biological target: 5-hydroxytryptamine receptor 2B (Homo sapiens, UniProt P41595); format: functional, cell-based
[2] = biological target: Sodium-dependent noradrenaline transporter (Homo sapiens, UniProt P23975)
D(1A) dopamine receptor = D(1A) dopamine receptor (Homo sapiens, UniProt P21728); format: functional, cell-based
Histamine H1 receptor = Histamine H1 receptor (Homo sapiens, UniProt P35367)
Progesterone receptor = biological target: T1, Progesterone receptor (Homo sapiens, UniProt P06401); format: functional
T1 sequence (P06401 whole entry): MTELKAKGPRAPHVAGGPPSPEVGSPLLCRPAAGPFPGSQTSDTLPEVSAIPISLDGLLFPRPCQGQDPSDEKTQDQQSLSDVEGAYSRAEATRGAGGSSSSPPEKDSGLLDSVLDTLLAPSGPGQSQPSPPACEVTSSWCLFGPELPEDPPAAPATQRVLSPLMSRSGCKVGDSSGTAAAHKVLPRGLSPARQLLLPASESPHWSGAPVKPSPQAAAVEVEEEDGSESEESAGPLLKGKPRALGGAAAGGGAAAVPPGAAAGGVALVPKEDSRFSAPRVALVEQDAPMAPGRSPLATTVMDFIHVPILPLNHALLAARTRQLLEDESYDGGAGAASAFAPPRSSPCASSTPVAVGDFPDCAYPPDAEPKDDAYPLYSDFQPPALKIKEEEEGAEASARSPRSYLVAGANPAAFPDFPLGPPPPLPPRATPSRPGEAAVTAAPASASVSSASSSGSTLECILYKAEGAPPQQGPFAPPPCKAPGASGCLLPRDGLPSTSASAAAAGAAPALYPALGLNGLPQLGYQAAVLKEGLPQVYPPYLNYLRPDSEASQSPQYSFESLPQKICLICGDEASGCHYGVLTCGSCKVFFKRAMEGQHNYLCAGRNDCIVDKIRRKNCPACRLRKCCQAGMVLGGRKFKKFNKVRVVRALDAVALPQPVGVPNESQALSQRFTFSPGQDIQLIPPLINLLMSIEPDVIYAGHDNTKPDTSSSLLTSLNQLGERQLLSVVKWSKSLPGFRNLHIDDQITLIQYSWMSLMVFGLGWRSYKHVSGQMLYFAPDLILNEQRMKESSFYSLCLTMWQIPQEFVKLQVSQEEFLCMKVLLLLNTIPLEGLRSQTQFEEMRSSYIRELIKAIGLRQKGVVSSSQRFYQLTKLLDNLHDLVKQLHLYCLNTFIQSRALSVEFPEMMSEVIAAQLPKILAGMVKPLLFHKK

[3] = biological target: 3',5'-cyclic-AMP phosphodiesterase 4D (Homo sapiens, UniProt Q08499); format: functional
3',5'-cyclic-AMP phosphodiesterase 4D, sequence (Q08499 whole entry): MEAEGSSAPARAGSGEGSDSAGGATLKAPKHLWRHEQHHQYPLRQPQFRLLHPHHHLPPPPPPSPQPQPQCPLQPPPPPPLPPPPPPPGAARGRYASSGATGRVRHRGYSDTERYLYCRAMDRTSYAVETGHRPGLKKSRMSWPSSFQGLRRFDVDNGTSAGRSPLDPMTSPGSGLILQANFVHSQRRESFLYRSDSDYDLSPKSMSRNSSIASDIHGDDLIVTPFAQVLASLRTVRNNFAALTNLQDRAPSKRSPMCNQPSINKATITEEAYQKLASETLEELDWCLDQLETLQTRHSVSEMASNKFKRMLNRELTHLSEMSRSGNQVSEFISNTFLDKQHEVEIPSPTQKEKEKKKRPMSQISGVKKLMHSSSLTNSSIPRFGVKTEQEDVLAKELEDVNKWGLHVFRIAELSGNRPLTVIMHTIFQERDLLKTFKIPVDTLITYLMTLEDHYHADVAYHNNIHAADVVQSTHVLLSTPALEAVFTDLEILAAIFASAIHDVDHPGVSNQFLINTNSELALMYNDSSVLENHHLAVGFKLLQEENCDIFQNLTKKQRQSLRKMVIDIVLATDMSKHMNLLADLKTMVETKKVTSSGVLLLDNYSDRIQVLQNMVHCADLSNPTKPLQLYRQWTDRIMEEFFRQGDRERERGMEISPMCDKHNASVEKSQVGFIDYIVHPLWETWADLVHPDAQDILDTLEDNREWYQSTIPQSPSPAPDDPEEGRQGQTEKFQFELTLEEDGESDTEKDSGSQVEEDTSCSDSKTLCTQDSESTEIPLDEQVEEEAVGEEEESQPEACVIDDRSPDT

[4] = biological target: T2, Prostaglandin G/H synthase 1 (Rattus norvegicus, UniProt Q63921); format: functional
T2 sequence (Q63921 whole entry): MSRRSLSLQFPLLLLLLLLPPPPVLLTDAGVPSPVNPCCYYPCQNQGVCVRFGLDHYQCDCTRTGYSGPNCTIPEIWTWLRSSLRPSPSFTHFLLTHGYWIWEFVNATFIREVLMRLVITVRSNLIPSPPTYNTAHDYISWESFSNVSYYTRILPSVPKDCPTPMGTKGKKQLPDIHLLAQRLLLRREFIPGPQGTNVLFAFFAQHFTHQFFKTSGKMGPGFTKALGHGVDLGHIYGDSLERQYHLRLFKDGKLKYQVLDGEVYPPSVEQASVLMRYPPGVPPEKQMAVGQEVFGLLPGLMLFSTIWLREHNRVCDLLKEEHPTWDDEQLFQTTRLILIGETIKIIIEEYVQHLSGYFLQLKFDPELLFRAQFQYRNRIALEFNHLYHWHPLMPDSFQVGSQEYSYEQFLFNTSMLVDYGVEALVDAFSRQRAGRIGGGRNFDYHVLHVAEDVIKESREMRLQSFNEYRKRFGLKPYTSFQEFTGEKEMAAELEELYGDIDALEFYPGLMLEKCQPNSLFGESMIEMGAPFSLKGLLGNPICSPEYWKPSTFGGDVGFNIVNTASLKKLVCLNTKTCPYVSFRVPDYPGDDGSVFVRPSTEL

[5] = biological target: T3, 5-hydroxytryptamine receptor 3A (Homo sapiens, UniProt P46098); format: functional
T3 sequence (P46098 whole entry): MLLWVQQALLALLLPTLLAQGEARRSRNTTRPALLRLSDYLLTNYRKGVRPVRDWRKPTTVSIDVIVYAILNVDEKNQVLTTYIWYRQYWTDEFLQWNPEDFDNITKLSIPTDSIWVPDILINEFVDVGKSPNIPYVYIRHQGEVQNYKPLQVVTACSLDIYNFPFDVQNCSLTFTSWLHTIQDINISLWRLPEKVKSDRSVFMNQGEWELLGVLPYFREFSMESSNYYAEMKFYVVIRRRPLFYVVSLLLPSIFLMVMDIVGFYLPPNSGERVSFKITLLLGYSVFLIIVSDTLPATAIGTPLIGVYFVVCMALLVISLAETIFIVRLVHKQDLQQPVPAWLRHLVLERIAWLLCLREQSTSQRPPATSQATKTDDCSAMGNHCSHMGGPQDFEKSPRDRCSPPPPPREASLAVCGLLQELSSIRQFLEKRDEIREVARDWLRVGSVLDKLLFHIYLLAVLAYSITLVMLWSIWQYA

[6] = biological target: T4, Neuropeptide Y receptor type 1 (Homo sapiens, UniProt P25929)
T4 sequence (P25929 whole entry): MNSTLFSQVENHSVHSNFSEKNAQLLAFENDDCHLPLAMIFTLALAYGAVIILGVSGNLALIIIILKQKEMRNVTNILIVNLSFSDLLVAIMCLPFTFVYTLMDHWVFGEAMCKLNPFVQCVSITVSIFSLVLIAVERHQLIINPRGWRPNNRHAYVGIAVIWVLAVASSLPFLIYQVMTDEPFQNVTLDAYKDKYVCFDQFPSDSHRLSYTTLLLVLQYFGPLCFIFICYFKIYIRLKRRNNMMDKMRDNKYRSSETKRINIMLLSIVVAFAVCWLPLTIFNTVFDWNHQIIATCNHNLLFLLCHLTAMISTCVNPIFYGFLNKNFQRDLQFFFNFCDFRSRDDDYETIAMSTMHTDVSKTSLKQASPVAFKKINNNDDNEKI
Further: assay procedure not described here.

D(1A) dopamine receptor, sequence (P21728 whole entry): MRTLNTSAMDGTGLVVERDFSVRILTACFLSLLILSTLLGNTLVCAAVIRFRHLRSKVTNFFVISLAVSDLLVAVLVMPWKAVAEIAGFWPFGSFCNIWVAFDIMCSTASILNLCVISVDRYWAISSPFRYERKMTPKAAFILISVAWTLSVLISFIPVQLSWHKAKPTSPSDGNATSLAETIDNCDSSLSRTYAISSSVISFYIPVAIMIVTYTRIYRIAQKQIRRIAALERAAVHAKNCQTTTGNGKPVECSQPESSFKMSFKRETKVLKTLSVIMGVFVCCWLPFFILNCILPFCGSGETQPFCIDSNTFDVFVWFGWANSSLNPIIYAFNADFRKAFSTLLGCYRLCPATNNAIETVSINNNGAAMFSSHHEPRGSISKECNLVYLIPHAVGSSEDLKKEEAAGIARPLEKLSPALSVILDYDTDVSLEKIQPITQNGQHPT
Histamine H1 receptor, sequence (P35367 whole entry): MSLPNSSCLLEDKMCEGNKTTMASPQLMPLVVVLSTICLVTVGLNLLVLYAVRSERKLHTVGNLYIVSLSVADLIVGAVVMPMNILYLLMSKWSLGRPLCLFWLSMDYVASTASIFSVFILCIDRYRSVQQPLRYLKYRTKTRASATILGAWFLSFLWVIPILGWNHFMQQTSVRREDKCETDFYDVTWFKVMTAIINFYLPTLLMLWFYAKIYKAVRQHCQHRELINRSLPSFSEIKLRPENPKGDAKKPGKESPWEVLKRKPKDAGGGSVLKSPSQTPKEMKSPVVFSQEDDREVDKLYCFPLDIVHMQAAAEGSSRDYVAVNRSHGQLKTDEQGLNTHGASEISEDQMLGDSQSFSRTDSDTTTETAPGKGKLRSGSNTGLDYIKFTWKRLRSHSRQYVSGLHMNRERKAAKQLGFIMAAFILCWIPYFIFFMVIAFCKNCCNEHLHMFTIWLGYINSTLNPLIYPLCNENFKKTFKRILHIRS
Sodium-dependent noradrenaline transporter, sequence (P23975 whole entry): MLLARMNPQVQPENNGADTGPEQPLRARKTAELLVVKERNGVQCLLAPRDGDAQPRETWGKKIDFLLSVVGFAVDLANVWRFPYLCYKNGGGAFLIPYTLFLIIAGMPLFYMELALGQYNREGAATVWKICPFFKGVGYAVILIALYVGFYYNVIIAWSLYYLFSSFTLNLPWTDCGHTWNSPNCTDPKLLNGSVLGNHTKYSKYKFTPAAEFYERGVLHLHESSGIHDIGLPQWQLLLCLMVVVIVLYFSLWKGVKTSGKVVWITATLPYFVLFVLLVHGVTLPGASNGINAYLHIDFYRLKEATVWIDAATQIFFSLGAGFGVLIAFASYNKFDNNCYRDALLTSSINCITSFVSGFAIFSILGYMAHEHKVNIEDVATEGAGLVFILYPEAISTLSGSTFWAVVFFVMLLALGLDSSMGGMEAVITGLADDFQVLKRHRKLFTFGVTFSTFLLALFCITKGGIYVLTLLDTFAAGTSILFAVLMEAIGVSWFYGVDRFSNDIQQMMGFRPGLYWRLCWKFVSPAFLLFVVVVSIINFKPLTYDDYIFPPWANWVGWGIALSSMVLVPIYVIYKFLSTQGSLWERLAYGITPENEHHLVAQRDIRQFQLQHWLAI
5-hydroxytryptamine receptor 2B, sequence (P41595 whole entry): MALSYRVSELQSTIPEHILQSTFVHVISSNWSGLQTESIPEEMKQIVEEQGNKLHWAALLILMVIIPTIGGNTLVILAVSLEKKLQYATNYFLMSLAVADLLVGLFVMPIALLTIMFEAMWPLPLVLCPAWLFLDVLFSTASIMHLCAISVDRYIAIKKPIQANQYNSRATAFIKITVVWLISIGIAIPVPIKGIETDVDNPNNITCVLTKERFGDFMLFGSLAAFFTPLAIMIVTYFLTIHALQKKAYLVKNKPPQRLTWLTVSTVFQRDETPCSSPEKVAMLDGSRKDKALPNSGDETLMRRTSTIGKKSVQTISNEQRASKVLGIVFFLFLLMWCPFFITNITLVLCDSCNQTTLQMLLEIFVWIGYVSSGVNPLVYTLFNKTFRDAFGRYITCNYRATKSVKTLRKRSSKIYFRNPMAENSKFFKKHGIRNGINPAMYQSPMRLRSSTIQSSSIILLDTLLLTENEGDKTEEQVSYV

Cc1ccc(-n2nccn2)c(C(=O)N2CCN(c3nc4cc(Cl)ccc4o3)CC[C@H]2C)c1 [SUVOREXANT]
AC50 [1]: > 30 µM
AC50 [2]: > 30 µM
AC50 (D(1A) dopamine receptor): > 30 µM
AC50 (Histamine H1 receptor): > 30 µM
AC50 (Progesterone receptor): > 30 µM
AC50 [3]: > 30 µM
AC50 [4]: > 30 µM
AC50 [5]: > 30 µM
AC50 [6]: > 30 µM

C=CCC1(C(C)CC)C(=O)NC(=O)NC1=O (configuration not stated) [TALBUTAL]
AC50 [1]: > 10 µM
AC50 [2]: > 10 µM
AC50 (D(1A) dopamine receptor): > 10 µM
AC50 (Histamine H1 receptor): > 10 µM
AC50 (Progesterone receptor): > 10 µM
AC50 [3]: > 30 µM
AC50 [4]: > 10 µM
AC50 [5]: > 30 µM
AC50 [6]: > 10 µM

CCN(CC)C(=O)N[C@H]1C[C@@H]2c3cccc4[nH]cc(c34)C[C@H]2N(C)C1 [TERGURIDE]
AC50 [1]: 0.58 µM
AC50 [2]: > 30 µM
AC50 (D(1A) dopamine receptor): 0.049 µM
AC50 (Histamine H1 receptor): 2.1 µM
AC50 (Progesterone receptor): > 30 µM
AC50 [3]: > 30 µM
AC50 [4]: > 30 µM
AC50 [5]: > 30 µM
AC50 [6]: > 30 µM

CC(CC(c1ccccc1)c1ccccc1)NC(C)(C)C (configuration not stated) [TERODILINE]
AC50 [1]: > 30 µM
AC50 [2]: > 30 µM
AC50 (D(1A) dopamine receptor): > 30 µM
AC50 (Histamine H1 receptor): 0.76 µM
AC50 (Progesterone receptor): > 30 µM
AC50 [3]: > 30 µM
AC50 [4]: > 30 µM
AC50 [5]: > 30 µM
AC50 [6]: > 30 µM

COc1cc2c(N)nc(N3CCN(C(=O)OCC(C)(C)O)CC3)nc2c(OC)c1OC [TRIMAZOSIN]
AC50 [1]: > 30 µM
AC50 [2]: > 30 µM
AC50 (D(1A) dopamine receptor): > 30 µM
AC50 (Histamine H1 receptor): > 30 µM
AC50 (Progesterone receptor): > 30 µM
AC50 [3]: > 30 µM
AC50 [4]: > 30 µM
AC50 [5]: > 30 µM
AC50 [6]: > 30 µM

C=CCN1CCCC1CNC(=O)c1cc(S(N)(=O)=O)cc(OC)c1OC (configuration not stated) [VERALIPRIDE]
AC50 [1]: > 30 µM
AC50 [2]: > 30 µM
AC50 (D(1A) dopamine receptor): > 30 µM
AC50 (Histamine H1 receptor): > 30 µM
AC50 (Progesterone receptor): > 30 µM
AC50 [3]: > 30 µM
AC50 [4]: > 30 µM
AC50 [5]: > 30 µM
AC50 [6]: > 30 µM

O=C(NCCNCC(O)COc1ccc(O)cc1)N1CCOCC1 (configuration not stated) [XAMOTEROL]
AC50 [1]: > 30 µM
AC50 [2]: > 30 µM
AC50 (D(1A) dopamine receptor): > 30 µM
AC50 (Histamine H1 receptor): > 30 µM
AC50 (Progesterone receptor): > 30 µM
AC50 [3]: > 30 µM
AC50 [4]: > 30 µM
AC50 [5]: > 30 µM
AC50 [6]: > 30 µM

C[C@H](CSC(=O)c1ccccc1)C(=O)N1C[C@@H](Sc2ccccc2)C[C@H]1C(=O)O [ZOFENOPRIL]
AC50 [1]: > 10 µM
AC50 [2]: > 10 µM
AC50 (D(1A) dopamine receptor): > 10 µM
AC50 (Histamine H1 receptor): > 10 µM
AC50 (Progesterone receptor): > 10 µM
AC50 [3]: > 10 µM
AC50 [4]: > 10 µM
AC50 [5]: > 30 µM
AC50 [6]: > 10 µM
